Source: patent US20240150377A1, “MODULATORS OF CYSTIC FIBROSIS TRANSMEMBRANE CONDUCTANCE REGULATOR” (VERTEX PHARMACEUTICALS INCORPORATED, priority 2020, published 2024)
Where two headings read alike, the source gives them in different places. Values belong to the compound of their own block, whether it stands above or below them.

Biological target: T1, CFTR (Homo sapiens, UniProt P13569, DEL508-508)
T1 construct: endogenous in cells; host or cells: primary human bronchial epithelial cells from CF subjects (F508del/MF-HBE), differentiated at air-liquid interface
Test: HBE assay: Ussing chamber assay of CFTR-mediated short-circuit currents
Type: cell-based
Details: for EC50: read-out: HBE EC50
Summary of the method: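 CFTR-mediated Isc (μA/cm²) equals the peak response to apical 20 μM forskolin minus the residual after a 20 μM each BPO/GlyH-101/CFTR inhibitor 172 cocktail, recorded in Ussing chambers at Vhold 0 mV, 37 °C, pH 7.4, with 30 μM apical amiloride. Cells were F508del/MF HBE cultures preincubated 18-24 h with corrector (concentration range or 10 μM) plus 1 μM ivacaftor in 20% human serum.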

[1] = HBE assay, read-out: HBE Max activity (%)
[2] = Table 11, read-out: HBE Max Activity (%)
[3] = Table 10, at 10 μM, read-out: HBE activity at 10 (μM) (%)
[4] = Table 13, at 10 μM, read-out: HBE Activity at 10 μM (%)
[5] = Table 10, read-out: HBE Max activity (%)
[6] = Table 12, read-out: HBE Max Activity (%)
[7] = HBE assay, 10 μM, read-out: HBE Activity at 10 μM (%)
[8] = Table 13, read-out: HBE Max Activity (%)

T1 sequence (P13569 with tags, fused parts or gaps DEL508-508): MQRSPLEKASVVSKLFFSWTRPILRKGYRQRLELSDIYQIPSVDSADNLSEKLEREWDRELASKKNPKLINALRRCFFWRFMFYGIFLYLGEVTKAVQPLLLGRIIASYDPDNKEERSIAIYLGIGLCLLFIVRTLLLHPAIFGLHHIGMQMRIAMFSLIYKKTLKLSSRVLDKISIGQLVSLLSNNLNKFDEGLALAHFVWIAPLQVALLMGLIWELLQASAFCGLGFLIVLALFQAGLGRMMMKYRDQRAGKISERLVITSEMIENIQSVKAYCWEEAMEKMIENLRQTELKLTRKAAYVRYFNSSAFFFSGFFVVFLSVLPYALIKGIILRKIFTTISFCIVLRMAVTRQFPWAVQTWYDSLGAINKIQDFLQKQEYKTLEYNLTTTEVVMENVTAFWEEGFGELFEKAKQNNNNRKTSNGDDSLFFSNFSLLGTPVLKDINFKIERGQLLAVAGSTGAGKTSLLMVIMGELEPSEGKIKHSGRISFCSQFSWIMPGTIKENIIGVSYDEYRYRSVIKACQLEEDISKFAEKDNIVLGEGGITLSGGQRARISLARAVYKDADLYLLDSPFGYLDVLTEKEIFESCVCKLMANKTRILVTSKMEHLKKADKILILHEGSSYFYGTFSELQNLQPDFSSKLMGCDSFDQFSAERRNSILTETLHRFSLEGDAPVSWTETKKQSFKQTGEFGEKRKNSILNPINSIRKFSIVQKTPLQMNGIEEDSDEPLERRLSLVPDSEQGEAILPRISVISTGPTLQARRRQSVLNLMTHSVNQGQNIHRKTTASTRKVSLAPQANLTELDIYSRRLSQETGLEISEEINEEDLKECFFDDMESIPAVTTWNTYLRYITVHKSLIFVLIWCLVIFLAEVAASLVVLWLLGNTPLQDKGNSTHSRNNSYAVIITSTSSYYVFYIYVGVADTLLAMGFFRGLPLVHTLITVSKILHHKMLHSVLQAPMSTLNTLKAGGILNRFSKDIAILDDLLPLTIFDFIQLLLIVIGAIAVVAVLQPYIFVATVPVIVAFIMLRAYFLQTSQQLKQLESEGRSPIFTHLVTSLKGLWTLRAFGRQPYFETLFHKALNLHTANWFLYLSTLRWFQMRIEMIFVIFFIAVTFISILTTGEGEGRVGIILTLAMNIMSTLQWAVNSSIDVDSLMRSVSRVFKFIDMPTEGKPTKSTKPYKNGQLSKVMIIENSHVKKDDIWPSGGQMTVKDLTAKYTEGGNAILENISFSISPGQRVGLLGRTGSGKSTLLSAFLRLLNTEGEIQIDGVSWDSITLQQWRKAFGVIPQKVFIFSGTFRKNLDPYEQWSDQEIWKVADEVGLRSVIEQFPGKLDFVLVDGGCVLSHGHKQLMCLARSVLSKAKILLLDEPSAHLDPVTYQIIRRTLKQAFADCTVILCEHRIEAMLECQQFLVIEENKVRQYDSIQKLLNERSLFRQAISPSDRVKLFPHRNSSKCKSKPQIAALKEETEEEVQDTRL

HBE Max activity (%) (Table 11): + (+ is <30%) | activation at 10 µM (Table 11, at 10 μM, read-out: HBE Activity at 10 μM (%)): > 60%
Structure (SMILES): Cc1cccc(C)c1-c1cc2nc(n1)NS(=O)(=O)c1cccc(c1)C(=O)N(Cc1nccc(N3CCC(C)(C)CC3)n1)[C@H](CC(C)(C)C)CO2 [Compound 620]

EC50 (HBE assay): < 1000 nM | Emax [1]: > 60%
Structure (SMILES): Cc1cccc(C)c1-c1cc2nc(n1)NS(=O)(=O)c1cccc(c1)C(=O)N(Cc1ncc(OC3CC(C)(C)C3)cn1)[C@H](CC1CC1)CO2 [Compound 1454]

EC50 (HBE assay): < 1000 nM | Emax [1]: > 60%
Structure (SMILES): Cc1cccc(C)c1-c1cc2nc(n1)NS(=O)(=O)c1cccc(c1)C(=O)N(Cc1nc(N(C)C3CC4(CC4)C3)ccc1F)[C@H](CC(C)(C)C)CO2 [Compound 1300, (11R)-6-(2,6-Dimethylphenyl)-11-(2,2-dimethylpropyl)-12-[[3-fluoro-6-[methyl(spiro[2.3]hexan-5-yl)amino]-2-pyridyl]methyl]-2,2-dioxo-9-oxa-2λ^6-thia-3,5,12,19-tetrazatricyclo[12.3.1.14,8]nonadeca-1(18),4(19),5,7,14,16-hexaen-13-one]

activation at 10 µM [3]: > 60%
Structure (SMILES): Cc1cccc(C)c1-c1cc2nc(n1)NS(=O)(=O)c1cccc(c1)C(=O)N(CC1CCCCC1)[C@H](CC(C)(C)C)CO2 [Compound 832]

EC50 (HBE assay): < 1000 nM | Emax [1]: > 60%
Structure (SMILES): CO[C@H]1C[C@@H](Oc2cnc(CN3C(=O)c4cccc(c4)S(=O)(=O)Nc4nc(cc(-c5c(C)cccc5C)n4)OC[C@H]3CC(C)C)nc2)C1 [Compound 1432]

EC50 (Table 12): < 1000 nM | Emax [6]: > 60%
Structure (SMILES): Cc1cccc(C)c1-c1cc2nc(n1)NS(=O)(=O)c1cccc(c1)C(=O)N(Cc1nccc(N(C)C(C)C)n1)[C@H](CC1CC1)CO2 [Compound 459]

EC50 (Table 12): < 1000 nM | Emax [6]: > 60%
Structure (SMILES): Cc1cccc(C)c1-c1cc2nc(n1)NS(=O)(=O)c1cccc(c1)C(=O)N(Cc1cncc(N(C)C3CC4(CCC4)C3)n1)[C@H](CC(C)(C)C)CO2 [Compound 441]

EC50 (HBE assay): < 1000 nM | Emax [1]: > 60%
Structure (SMILES): Cc1cccc(C)c1-c1cc2nc(n1)NS(=O)(=O)c1cccc(c1)C(=O)N(Cc1ncc(OC3CC4(CC4)C3)cn1)[C@H](CC1CC1)CO2 [Compound 1478]

EC50 (Table 13): < 1000 nM | Emax [8]: > 60%
Structure (SMILES): Cc1cccc(C)c1-c1cc2nc(n1)NS(=O)(=O)c1cccc(c1)C(=O)N(Cc1ncc(OC3CCC3)cc1Cl)[C@H](CC(C)(C)C)CO2 [Compound 690]

activation at 10 µM [7]: > 60%
Structure (SMILES): Cc1cccc(C)c1-c1cc2nc(n1)NS(=O)(=O)c1cccc(c1)C(=O)N(Cc1cccc(N3CCC[C@H]3C3CC3)n1)[C@H](CC1CC1)CO2 [Compound 1501]

EC50 (Table 11): < 1000 nM | Emax [2]: > 60%
Structure (SMILES): COc1cncc(CN2C(=O)c3cccc(c3)S(=O)(=O)Nc3nc(cc(-c4c(C)cccc4C)n3)OC[C@H]2CC(C)(C)C)n1 [Compound 884]

EC50 (Table 11): < 1000 nM | Emax [2]: > 60%
Structure (SMILES): COC1CCC(CN2C(=O)c3cccc(c3)S(=O)(=O)Nc3nc(cc(-c4c(C)cccc4C)n3)OC[C@H]2CC(C)(C)C)CC1 (stereo partly drawn) [Compound 903]

EC50 (Table 12): < 1000 nM | Emax [6]: > 60%
Structure (SMILES): Cc1cccc(C)c1-c1cc2nc(n1)NS(=O)(=O)c1cccc(c1)C(=O)N(Cc1ncc(N3CCC(C)(C)CC3)cn1)[C@H](CC1CC1)CO2 [Compound 462]

EC50 (Table 12): < 1000 nM | Emax [6]: > 60%
Structure (SMILES): Cc1cccc(C)c1-c1cc2nc(n1)NS(=O)(=O)c1cccc(c1)C(=O)N(Cc1ncc(N3CCC(C(C)(C)C)C3)cn1)[C@H](CC(C)(C)C)CO2 (stereo partly drawn) [Compound 875]

activation at 10 µM [7]: > 60%
Structure (SMILES): Cc1cccc(C)c1-c1cc2nc(n1)NS(=O)(=O)c1cccc(c1)C(=O)N(Cc1ncc(N3CC(F)(F)C(F)(F)C3)cn1)[C@H](CC(C)(C)C)CO2 [Compound 1500]

activation at 10 µM [7]: > 60%
Structure (SMILES): CC(=O)N(C)c1cnc(CN2C(=O)c3cccc(c3)S(=O)(=O)Nc3nc(cc(-c4c(C)cccc4C)n3)OC[C@H]2CC(C)(C)C)nc1 [Compound 1516]

EC50 (Table 11): < 1000 nM | Emax [2]: > 60%
Structure (SMILES): CCOc1cnc(CN2C(=O)c3cccc(c3)S(=O)(=O)Nc3nc(cc(-c4c(C)cccc4C)n3)OC[C@H]2CC(C)(C)C)nc1 [Compound 720]

EC50 (Table 12): < 1000 nM | Emax [6]: > 60%
Structure (SMILES): Cc1cccc(C)c1-c1cc2nc(n1)NS(=O)(=O)c1cccc(c1)C(=O)N(Cc1ccc(C3CCCCO3)cn1)[C@H](CC(C)(C)C)CO2 (stereo partly drawn) [Compound 707]

EC50 (HBE assay): < 1000 nM | Emax [1]: > 60%
Structure (SMILES): COCC(C)Oc1cnc(CN2C(=O)c3cccc(c3)S(=O)(=O)Nc3nc(cc(-c4c(C)cccc4C)n3)OC[C@H]2CC(C)(C)C)nc1 (stereo partly drawn) [Compound 1344]

EC50 (Table 12): < 1000 nM | Emax [6]: > 60%
Structure (SMILES): Cc1cccc(C)c1-c1cc2nc(n1)NS(=O)(=O)c1cccc(c1)C(=O)N(Cc1ncc(OC3CCOCC3)cn1)[C@H](CC(C)(C)C)CO2 [Compound 556]

EC50 (Table 13): 1000 to 3000 nM | Emax [8]: > 60%
Structure (SMILES): Cc1cccc(C)c1-c1cc2nc(n1)NS(=O)(=O)c1cccc(c1)C(=O)N(Cc1ncc([C@@H](O)CO)cn1)[C@H](CC(C)(C)C)CO2 [Compound 1153]

Further lines, the compound ahead of its results:

Structure (SMILES): Cc1cccc(C)c1-c1cc2nc(n1)NS(=O)(=O)c1cccc(c1)C(=O)N(Cc1cccc(N(CC3CCCO3)C(C)C)n1)[C@H](CC(C)(C)C)CO2 (stereo partly drawn) [Compound 1446]
HBE Max activity (%) (HBE assay): +++ (+++ is >60+) | EC50 (HBE assay): < 1000 nM

Structure (SMILES): CO[C@@H]1CCN(c2cccc(CN3C(=O)c4cccc(c4)S(=O)(=O)Nc4nc(cc(-c5c(C)cccc5C)n4)OC[C@H]3CC(C)(C)C)n2)C1 [Compound 624]
EC50 (Table 11): < 1000 nM | Emax [2]: > 60%

Structure (SMILES): Cc1cccc(C)c1-c1cc2nc(n1)NS(=O)(=O)c1cccc(c1)C(=O)N(CC(=O)N1CCC[C@H](c3ccccc3)C1)[C@H](CC(C)(C)C)CO2 [Compound 195]
activation at 10 µM [4]: > 600%

Structure (SMILES): CNc1cccc(CN2C(=O)c3cccc(c3)S(=O)(=O)Nc3nc(cc(-c4c(C)cccc4C)n3)OC[C@H]2CC(C)(C)C)n1 [Compound 490]
activation at 10 µM [3]: > 60% | EC50 (Table 10): < 1000 nM | Emax [5]: > 60%

Structure (SMILES): Cc1cccc(C)c1-c1cc2nc(n1)NS(=O)(=O)c1cccc(c1)C(=O)N(Cc1ccc(N3CCC(C(=O)N(C)C)CC3)cn1)[C@H](CC(C)(C)C)CO2 [Compound 249]
activation at 10 µM [4]: > 600%

Structure (SMILES): Cc1cccc(C)c1-c1cc2nc(n1)NS(=O)(=O)c1cccc(c1)C(=O)N(Cc1cccc(N(C)C(C)C)n1)[C@H](CC(C)(C)C)CO2 [Compound 737]
EC50 (Table 11): < 1000 nM | Emax [2]: > 60%

Structure (SMILES): Cc1cccc(C)c1-c1cc2nc(n1)NS(=O)(=O)c1cccc(c1)C(=O)N(CC(=O)N1CCC3(CCCC3)CC1)[C@H](CC(C)(C)C)CO2 [Compound 183]
activation at 10 µM [4]: > 600%

Structure (SMILES): CCN(c1ccnc(CN2C(=O)c3cccc(c3)S(=O)(=O)Nc3nc(cc(-c4c(C)cccc4C)n3)OC[C@H]2CC(C)(C)C)n1)C(C)C [Compound 602]
EC50 (Table 11): < 1000 nM | Emax [2]: > 60%

Structure (SMILES): COCCN(c1cccc(CN2C(=O)c3cccc(c3)S(=O)(=O)Nc3nc(cc(-c4c(C)cccc4C)n3)OC[C@H]2CC(C)(C)F)n1)C(C)C [Compound 1508]
activation at 10 µM [7]: > 60%

Structure (SMILES): Cc1cccc(C)c1-c1cc2nc(n1)NS(=O)(=O)c1cccc(c1)C(=O)N(CC1CCN(CCC(C)(C)C)C1=O)[C@H](CC(C)(C)C)CO2 (stereo partly drawn) [Compound 653]
EC50 (Table 11): < 1000 nM

Structure (SMILES): COCCN(C)c1cnc(CN2C(=O)c3cccc(c3)S(=O)(=O)Nc3nc(cc(-c4c(C)cccc4C)n3)OC[C@H]2CC(C)(C)C)cn1 [Compound 900]
EC50 (Table 11): 1000 to 3000 nM | Emax [2]: > 60%

Structure (SMILES): Cc1cccc(C)c1-c1cc2nc(n1)NS(=O)(=O)c1cccc(c1)C(=O)N(Cc1cc3n(n1)CCC3)[C@H](CC(C)(C)C)CO2 [Compound 455]
activation at 10 µM (Table 12, at 10 μM, read-out: HBE Activity at 10 μM (%)): > 600%

Structure (SMILES): Cc1cccc(C)c1-c1cc2nc(n1)NS(=O)(=O)c1cccc(c1)C(=O)N(Cc1ccc(N3CCOCC3)cc1)[C@H](CC(C)(C)C)CO2 [Compound 498]
EC50 (Table 10): < 1000 nM | Emax [5]: > 60%

Structure (SMILES): Cc1cccc(C)c1-c1cc2nc(n1)NS(=O)(=O)c1cccc(c1)C(=O)N(CC(=O)N1CCCC1c1ccccc1)[C@H](CC(C)(C)C)CO2 (stereo partly drawn) [Compound 188]
activation at 10 µM [4]: > 600%

Structure (SMILES): Cc1cccc(C)c1-c1cc2nc(n1)NS(=O)(=O)c1cccc(c1)C(=O)N(Cc1ccc(C(C)(C)C)cc1O)[C@H](CC(C)(C)C)CO2 [Compound 433]
activation at 10 µM [4]: > 600%

Structure (SMILES): Cc1cnc(CN2C(=O)c3cccc(c3)S(=O)(=O)Nc3nc(cc(-c4c(C)cccc4C)n3)OC[C@H]2CC(C)(C)C)nc1N(C)CC(C)(C)C [Compound 328]
EC50 (Table 12): < 1000 nM | Emax [6]: > 60%

Structure (SMILES): COC1CCN(c2cccc(CN3C(=O)c4cccc(c4)S(=O)(=O)Nc4nc(cc(-c5c(C)cccc5C)n4)OC[C@H]3CC(C)(C)C)n2)CC1 [Compound 722]
EC50 (Table 11): < 1000 nM | Emax [2]: > 60%

Structure (SMILES): Cc1ccc2c(c1)CCN(C(=O)CN1C(=O)c3cccc(c3)S(=O)(=O)Nc3nc(cc(-c4c(C)cccc4C)n3)OC[C@H]1CC(C)(C)C)C2 [Compound 209]
activation at 10 µM [4]: > 600%

Structure (SMILES): Cc1cccc(C)c1-c1cc2nc(n1)NS(=O)(=O)c1cccc(c1)C(=O)N(Cc1cccc(CC(C)C)n1)[C@H](CC(C)(C)C)CO2 [Compound 583]
EC50 (Table 12): < 1000 nM | Emax [6]: > 60%

Structure (SMILES): Cc1cccc(C)c1-c1cc2nc(n1)NS(=O)(=O)c1cccc(c1)C(=O)N(CC(=O)N(C)Cc1ccccn1)[C@H](CC(C)(C)C)CO2 [Compound 221]
EC50 (Table 12): < 1000 nM | Emax [6]: > 60%

Structure (SMILES): Cc1cccc(C)c1-c1cc2nc(n1)NS(=O)(=O)c1cccc(c1)C(=O)N(CC(=O)N1CCc3c(Cl)nc(C(F)(F)F)nc3C1)[C@H](CC(C)(C)C)CO2 [Compound 206]
activation at 10 µM [4]: 30 to 60%

Structure (SMILES): Cc1cccc(C)c1-c1cc2nc(n1)NS(=O)(=O)c1cccc(c1)C(=O)N(CC(=O)N1CCOCC1(C)C)[C@H](CC(C)(C)C)CO2 [Compound 214]
activation at 10 µM [4]: > 600%
